Data as given in ChEMBL document CHEMBL1130753, “Solid phase synthesis of a biased mini tetrapeptoid-library for the discovery of monodentate ITAM mimics as ZAP-70 inhibitors” (Bioorg Med Chem Lett, 1998).
Where a SMILES comes first, the peptide text is derived from it. [ ]: non-standard residue; d: D form. The star is where a group is joined. Gly(N-Bn(4-CH2PO3H2)) = O=C(O)CNCc1ccc(CP(=O)(O)O)cc1; N(3-phenylpropyl)Gly = O=C(O)CNCCCc1ccccc1; Hexanoyl = CCCCCC(=O)*; Nleu = CC(C)CNCC(=O)O; NEtG = CCNCC(=O)O

Experiments:
[1] = target: Tyrosine-protein kinase Lck (Homo sapiens) (UniProt P06239); assay: Compound was tested for its antagonistic activity at 100 uM concentration against SH2 domain of LCK protein.; format: functional
[2] = target: Growth factor receptor-bound protein 2 (Homo sapiens) (UniProt P62993); assay: Antagonistic activity at 100 uM concentration against SH-2 domain of growth factor receptor binding protein (Grb2).
[3] = target: T1, Tyrosine-protein kinase ZAP-70 (Homo sapiens, UniProt P43403); assay: Inhibition of binding to human ZAP-70 SH2 domain
T1 sequence (P43403 whole entry): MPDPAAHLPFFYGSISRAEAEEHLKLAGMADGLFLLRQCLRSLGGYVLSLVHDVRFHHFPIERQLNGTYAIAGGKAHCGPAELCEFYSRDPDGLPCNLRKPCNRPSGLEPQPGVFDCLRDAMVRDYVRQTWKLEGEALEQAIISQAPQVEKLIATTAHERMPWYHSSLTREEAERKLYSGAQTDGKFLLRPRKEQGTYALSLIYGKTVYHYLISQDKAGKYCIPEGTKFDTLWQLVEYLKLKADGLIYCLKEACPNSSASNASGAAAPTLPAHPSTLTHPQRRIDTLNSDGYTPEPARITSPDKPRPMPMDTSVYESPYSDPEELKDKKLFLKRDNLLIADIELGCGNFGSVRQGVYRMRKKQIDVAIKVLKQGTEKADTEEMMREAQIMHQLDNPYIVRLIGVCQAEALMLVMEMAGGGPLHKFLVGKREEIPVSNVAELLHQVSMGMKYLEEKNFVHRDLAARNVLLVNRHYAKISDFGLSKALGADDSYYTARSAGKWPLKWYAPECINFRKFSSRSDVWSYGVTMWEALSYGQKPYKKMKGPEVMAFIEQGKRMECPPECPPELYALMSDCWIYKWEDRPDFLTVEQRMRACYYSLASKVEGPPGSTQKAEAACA

Sequence of Growth factor receptor-bound protein 2 (Homo sapiens) (P62993 whole entry, looked up, the tested form may be a part): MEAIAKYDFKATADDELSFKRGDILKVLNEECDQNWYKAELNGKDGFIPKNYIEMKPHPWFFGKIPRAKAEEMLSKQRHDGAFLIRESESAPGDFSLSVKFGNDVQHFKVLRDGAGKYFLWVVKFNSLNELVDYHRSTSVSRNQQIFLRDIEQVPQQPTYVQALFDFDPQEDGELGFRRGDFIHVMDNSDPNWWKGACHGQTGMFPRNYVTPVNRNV
Sequence of Tyrosine-protein kinase Lck (Homo sapiens) (P06239 2-509 limits assumed): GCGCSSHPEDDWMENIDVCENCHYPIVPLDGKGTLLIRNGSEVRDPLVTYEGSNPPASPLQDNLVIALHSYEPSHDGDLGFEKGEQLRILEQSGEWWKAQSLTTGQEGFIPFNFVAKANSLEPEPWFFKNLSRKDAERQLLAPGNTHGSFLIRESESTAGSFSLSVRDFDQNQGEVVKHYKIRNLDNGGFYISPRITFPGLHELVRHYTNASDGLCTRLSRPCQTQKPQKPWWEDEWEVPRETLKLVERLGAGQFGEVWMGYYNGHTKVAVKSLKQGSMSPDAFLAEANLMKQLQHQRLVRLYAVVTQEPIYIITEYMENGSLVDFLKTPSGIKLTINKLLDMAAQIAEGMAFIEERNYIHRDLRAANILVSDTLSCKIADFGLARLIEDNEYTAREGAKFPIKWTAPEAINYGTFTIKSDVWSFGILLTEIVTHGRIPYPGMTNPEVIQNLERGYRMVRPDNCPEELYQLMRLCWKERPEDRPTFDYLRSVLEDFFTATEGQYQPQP

SMILES | inhibition [1] | inhibition [2] | IC50 [3]
CCCCCC(=O)N(CC(=O)N(CC(=O)N(CCCc1ccccc1)CC(=O)N(CCCc1ccccc1)CC(N)=O)CC(C)C)Cc1ccc(CP(=O)(O)O)cc1 (Hexanoyl-[Gly(N-Bn(4-CH2PO3H2))][Nleu][N(3-phenylpropyl)Gly][N(3-phenylpropyl)Gly]-NH2) | 3% | 0% | 
CCCCCC(=O)N(CC(=O)N(CCCc1ccccc1)CC(=O)N(CCCc1ccccc1)CC(=O)N(CC(N)=O)CC(C)C)Cc1ccc(CP(=O)(O)O)cc1 (Hexanoyl-[Gly(N-Bn(4-CH2PO3H2))][N(3-phenylpropyl)Gly][N(3-phenylpropyl)Gly][Nleu]-NH2) | 6% | 3% | 
CCCCCC(=O)N(CC(=O)N(CC)CC(=O)N(CC(=O)N(CC(N)=O)CC(C)C)CC(C)C)Cc1ccc(CP(=O)(O)O)cc1 (Hexanoyl-[Gly(N-Bn(4-CH2PO3H2))][NEtG][Nleu][Nleu]-NH2) | 6% | 8% | 
CCCCCC(=O)N(CC(=O)N(CC)CC(=O)N(CC(=O)N(CC)CC(N)=O)CC(C)C)Cc1ccc(CP(=O)(O)O)cc1 (Hexanoyl-[Gly(N-Bn(4-CH2PO3H2))][NEtG][Nleu][NEtG]-NH2) | 0% | 2% | 
CCCCCC(=O)N(CC(=O)N(CCCc1ccccc1)CC(=O)N(CC(=O)N(CCCc1ccccc1)CC(N)=O)CC(C)C)Cc1ccc(CP(=O)(O)O)cc1 (Hexanoyl-[Gly(N-Bn(4-CH2PO3H2))][N(3-phenylpropyl)Gly][Nleu][N(3-phenylpropyl)Gly]-NH2) | 32% | 32% | > 100 µM
CCCCCC(=O)N(CC(=O)N(CC)CC(=O)N(CCCc1ccccc1)CC(=O)N(CCCc1ccccc1)CC(N)=O)Cc1ccc(CP(=O)(O)O)cc1 (Hexanoyl-[Gly(N-Bn(4-CH2PO3H2))][NEtG][N(3-phenylpropyl)Gly][N(3-phenylpropyl)Gly]-NH2) | 0% | 2% | 
CCCCCC(=O)N(CC(=O)N(CCCc1ccccc1)CC(=O)N(CC)CC(=O)N(CC)CC(N)=O)Cc1ccc(CP(=O)(O)O)cc1 (Hexanoyl-[Gly(N-Bn(4-CH2PO3H2))][N(3-phenylpropyl)Gly][NEtG][NEtG]-NH2) | 4% | 5% | 
CCCCCC(=O)N(CC(=O)N(CC(=O)N(CC(=O)N(CC(N)=O)CC(C)C)CC(C)C)CC(C)C)Cc1ccc(CP(=O)(O)O)cc1 (Hexanoyl-[Gly(N-Bn(4-CH2PO3H2))][Nleu][Nleu][Nleu]-NH2) | 3% | 6% | 
CCCCCC(=O)N(CC(=O)N(CC)CC(=O)N(CC(=O)N(CCCc1ccccc1)CC(N)=O)CC(C)C)Cc1ccc(CP(=O)(O)O)cc1 (Hexanoyl-[Gly(N-Bn(4-CH2PO3H2))][NEtG][Nleu][N(3-phenylpropyl)Gly]-NH2) | 15% | 2% | 
CCCCCC(=O)N(CC(=O)N(CC(=O)N(CC(=O)N(CCCc1ccccc1)CC(N)=O)CC(C)C)CC(C)C)Cc1ccc(CP(=O)(O)O)cc1 (Hexanoyl-[Gly(N-Bn(4-CH2PO3H2))][Nleu][Nleu][N(3-phenylpropyl)Gly]-NH2) | 1% | 5% | 
CCCCCC(=O)N(CC(=O)N(CC)CC(=O)N(CCCc1ccccc1)CC(=O)N(CC)CC(N)=O)Cc1ccc(CP(=O)(O)O)cc1 (Hexanoyl-[Gly(N-Bn(4-CH2PO3H2))][NEtG][N(3-phenylpropyl)Gly][NEtG]-NH2) | 7% | 8% | 
CCCCCC(=O)N(CC(=O)N(CC)CC(=O)N(CCCc1ccccc1)CC(=O)N(CC(N)=O)CC(C)C)Cc1ccc(CP(=O)(O)O)cc1 (Hexanoyl-[Gly(N-Bn(4-CH2PO3H2))][NEtG][N(3-phenylpropyl)Gly][Nleu]-NH2) | 3% | 4% | 
CCCCCC(=O)N(CC(=O)N(CC)CC(=O)N(CC)CC(=O)N(CC)CC(N)=O)Cc1ccc(CP(=O)(O)O)cc1 (Hexanoyl-[Gly(N-Bn(4-CH2PO3H2))][NEtG][NEtG][NEtG]-NH2) | 4% | 6% | 
CCCCCC(=O)N(CC(=O)N(CCCc1ccccc1)CC(=O)N(CC(=O)N(CC)CC(N)=O)CC(C)C)Cc1ccc(CP(=O)(O)O)cc1 (Hexanoyl-[Gly(N-Bn(4-CH2PO3H2))][N(3-phenylpropyl)Gly][Nleu][NEtG]-NH2) | 5% | 6% | 
CCCCCC(=O)N(CC(=O)N(CC(=O)N(CC)CC(=O)N(CC)CC(N)=O)CC(C)C)Cc1ccc(CP(=O)(O)O)cc1 (Hexanoyl-[Gly(N-Bn(4-CH2PO3H2))][Nleu][NEtG][NEtG]-NH2) | 61% | 15% | 
CCCCCC(=O)N(CC(=O)N(CC)CC(=O)N(CC)CC(=O)N(CC(N)=O)CC(C)C)Cc1ccc(CP(=O)(O)O)cc1 (Hexanoyl-[Gly(N-Bn(4-CH2PO3H2))][NEtG][NEtG][Nleu]-NH2) | 2% | 2% | 
CCCCCC(=O)N(CC(=O)N(CC(=O)N(CC(=O)N(CC)CC(N)=O)CC(C)C)CC(C)C)Cc1ccc(CP(=O)(O)O)cc1 (Hexanoyl-[Gly(N-Bn(4-CH2PO3H2))][Nleu][Nleu][NEtG]-NH2) | 1% | 4% | 
CCCCCC(=O)N(CC(=O)N(CCCc1ccccc1)CC(=O)N(CC)CC(=O)N(CCCc1ccccc1)CC(N)=O)Cc1ccc(CP(=O)(O)O)cc1 (Hexanoyl-[Gly(N-Bn(4-CH2PO3H2))][N(3-phenylpropyl)Gly][NEtG][N(3-phenylpropyl)Gly]-NH2) | 4% | 20% | > 100 µM
CCCCCC(=O)N(CC(=O)N(CC(=O)N(CC)CC(=O)N(CC(N)=O)CC(C)C)CC(C)C)Cc1ccc(CP(=O)(O)O)cc1 (Hexanoyl-[Gly(N-Bn(4-CH2PO3H2))][Nleu][NEtG][Nleu]-NH2) | 9% | 30% | 
CCCCCC(=O)N(CC(=O)N(CCCc1ccccc1)CC(=O)N(CCCc1ccccc1)CC(=O)N(CCCc1ccccc1)CC(N)=O)Cc1ccc(CP(=O)(O)O)cc1 (Hexanoyl-[Gly(N-Bn(4-CH2PO3H2))][N(3-phenylpropyl)Gly][N(3-phenylpropyl)Gly][N(3-phenylpropyl)Gly]-NH2) | 4% | 5% | 
CCCCCC(=O)N(CC(=O)N(CCCc1ccccc1)CC(=O)N(CCCc1ccccc1)CC(=O)N(CC)CC(N)=O)Cc1ccc(CP(=O)(O)O)cc1 (Hexanoyl-[Gly(N-Bn(4-CH2PO3H2))][N(3-phenylpropyl)Gly][N(3-phenylpropyl)Gly][NEtG]-NH2) | 4% | 4% | 
CCCCCC(=O)N(CC(=O)N(CC)CC(=O)N(CC)CC(=O)N(CCCc1ccccc1)CC(N)=O)Cc1ccc(CP(=O)(O)O)cc1 (Hexanoyl-[Gly(N-Bn(4-CH2PO3H2))][NEtG][NEtG][N(3-phenylpropyl)Gly]-NH2) | 1% | 4% | 
CCCCCC(=O)N(CC(=O)N(CC(=O)N(CCCc1ccccc1)CC(=O)N(CC(N)=O)CC(C)C)CC(C)C)Cc1ccc(CP(=O)(O)O)cc1 (Hexanoyl-[Gly(N-Bn(4-CH2PO3H2))][Nleu][N(3-phenylpropyl)Gly][Nleu]-NH2) | 1% | 3% | 
CCCCCC(=O)N(CC(=O)N(CCCc1ccccc1)CC(=O)N(CC)CC(=O)N(CC(N)=O)CC(C)C)Cc1ccc(CP(=O)(O)O)cc1 (Hexanoyl-[Gly(N-Bn(4-CH2PO3H2))][N(3-phenylpropyl)Gly][NEtG][Nleu]-NH2) | 7% | 3% | 
CCCCCC(=O)N(CC(=O)N(CCCc1ccccc1)CC(=O)N(CC(=O)N(CC(N)=O)CC(C)C)CC(C)C)Cc1ccc(CP(=O)(O)O)cc1 (Hexanoyl-[Gly(N-Bn(4-CH2PO3H2))][N(3-phenylpropyl)Gly][Nleu][Nleu]-NH2) | 16% | 0% | 
CCCCCC(=O)N(CC(=O)N(CC(=O)N(CCCc1ccccc1)CC(=O)N(CC)CC(N)=O)CC(C)C)Cc1ccc(CP(=O)(O)O)cc1 (Hexanoyl-[Gly(N-Bn(4-CH2PO3H2))][Nleu][N(3-phenylpropyl)Gly][NEtG]-NH2) | 4% | 5% | 
CCCCCC(=O)N(CC(=O)N(CC(=O)N(CC)CC(=O)N(CCCc1ccccc1)CC(N)=O)CC(C)C)Cc1ccc(CP(=O)(O)O)cc1 (Hexanoyl-[Gly(N-Bn(4-CH2PO3H2))][Nleu][NEtG][N(3-phenylpropyl)Gly]-NH2) | 10% | 2% | 
